Measurements: patent US20230263786A1, “MODULATION OF DRUG-DRUG INTERACTIONS OF VADADUSTAT” (Akebia Therapeutics, Inc., priority 2020, published 2023)
“And” between values parts separate entries of the source, which are not always exact repeats. Equal entries are not always repeated. One block for each molecule: values may come before it.

How the values were obtained:
[1] = Phase I interaction study Part 2 Arm 1: sulfasalazine; assay type: in vivo, human; conditions: human, in vivo
Protocol: The study included 3 periods as follow: • Screening: performed within 28 days prior to dosing on Day 1. • Treatment period: […] In Part 2 (Arm 1): For each dose of sulfasalazine administered, blood samples for PK analysis were collected at the following timepoints: pre-dose, 0.5, 1, 2, 3, 4, 5, 6, 8, 12, 18, 24, 36, 48, 60, 72 and 96 hours postdose. […] Arm 1 (sulfasalazine): 26 subjects were treated with the study drug. On the morning of Day 1, subjects received a single oral dose of sulfasalazine 500 mg after at least a 10-hour overnight fast. Subjects would remain fasted for approximately 4 hours after dosing. Following a 5-day washout period (Days 1-5) subjects received vadadustat 600 mg once daily beginning on Day 6 for 7 days (Days 6-12). […] On Day 9, subjects received their morning dose of vadadustat 600 mg along with a single oral dose of sulfasalazine 500 mg after at least a 10-hour overnight fast. Subjects would remain fasted for at least 4 hours after dosing. Subjects were discharged from the clinical research unit on the morning of Day 13.

[2] = Phase I ferrous sulfate tablet interaction study; conditions: for Metabolite Ratio AUC(0-inf) / Metabolite Ratio AUC(0-t) / Metabolite Ratio Cmax: Metabolite/Parent; for AUC(0-inf) / AUC(0-t) / Cmax / Tmax: metabolite in plasma; for AUC(0-inf) / AUC(0-t) / Cmax: mean; for Tmax: median;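 on all read-outs here: crossover in fasted human subjects with four-day washout between periods, plasma glucuronide metabolite pharmacokinetics, ratios computed as metabolite over parent for AUC and Cmax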
Protocol: Pharmacokinetics. […] The ratio of metabolite to parent was calculated for each glucuronide metabolite for AUC(0-t); and AUC(0-inf) and Cmax.
Comparative Bioavailability. […] Factors incorporated in the model included: Sequence, Subject (Sequence), Period, and Treatment.
Treatment of Subjects. […] All subjects are dosed on the same day for Day 1 of Confinement Period 1, and are crossed over to the alternate treatment and are dosed on the same day for Day 1 of Confinement Period 2. Both treatments are administered in a fasted state, and a four-day Washout Period separates each Confinement Period.

[3] = [14C]-labeled Compound 1 650 mg metabolism and excretion; assay type: in vivo, human; conditions: single oral 650 mg [14C]-labeled Compound 1, healthy adult males
Excerpt: Compound 1 is metabolized via UGT, mainly producing O-glucuronide conjugates.
The urinary excretion rate of this drug and acyl glucuronide is less than 1% of the total radioactivity.

[4] = Phase I single-dose study, moderate hepatic impairment versus normal hepatic function; assay type: in vivo, human; conditions: single 450 mg; for AUC0-inf, plasma, total / AUC0-last, plasma, total / Cmax, plasma, total / Elimination Half-life (t1/2): mean ± SD
Protocol: A phase I, open-label, parallel-group, single-dose study was conducted to evaluate the pharmacokinetics (PK) of 450 mg vadadustat administered in adults with moderate hepatic impairment (Child-Pugh Class B) versus those with normal hepatic function. The pharmacokinetic (pK) parameters of Compound 1 were characterized. Safety and tolerability were assessed throughout the study.
Inclusion criteria: participants were male and female adults between 18 and 70 years of age, with either normal hepatic function or moderate hepatic impairment based on the Child-Pugh classification (Child-Pugh Class B [score 7-9]). Moderate hepatic impairment was defined by the presence and severity of elevated bilirubin levels, decreased serum albumin levels, elevated international normalized ratios >2.20, ascites, and hepatic encephalopathy.
Pharmacokinetics. […] PK parameters Ae0-72, Fe %0-72, and CL, were estimated from the urine concentration-time profiles.
8 subjects with hepatic impairment and 8 matched subjects with normal hepatic function were enrolled in the study. All subjects received a single oral 450-mg dose of vadadustat on Day 1 and were required to fast for at least 10 hours before dosing and for 4 hours after dosing.

[5] = clinical; assay type: in vivo, human; conditions: both sexes, human, in vivo, 40 mg
Protocol: Subjects would remain fasted for approximately 4 hours after dosing. […] Subjects would remain fasted for at least 4 hours after dosing. Subjects were discharged from the clinical research unit on the morning of Day 6.

[6] = Phase I interaction study Part 1: rosuvastatin; assay type: in vivo, human; conditions: for AUC(0-inf) / AUC(0-t) / Cmax: both sexes, human, plasma, oral; for AUC(0-inf): read-out: AUC0-inf, Geometric LSM; for AUC(0-t): read-out: AUC0-last, Geometric LSM; for Cmax: read-out: Cmax, Geometric LSM
Protocol: In Part 1, 34 subjects were treated with the study drug. On the morning of Day 1, subjects received a single oral dose of rosuvastatin 20 mg after at least a 10-hour overnight fast. Subjects would remain fasted for at least 4 hours after dosing. […] When administered alone, vadadustat would be administered in the morning at least 30 minutes prior to breakfast. On Day 10, subjects received their morning dose of vadadustat 600 mg along with a single oral dose of rosuvastatin 20 mg after at least a 10-hour overnight fast. Subjects would remain fasted for at least 4 hours after dosing. Subjects were discharged from the clinical research unit (CRU) on the morning of Day 15.

[7] = Phase I interaction study Part 2 Arm 2: pravastatin; assay type: in vivo, human; conditions: for Cmax / AUC(0-inf) / AUC(0-t): both sexes, human, plasma, oral; for AUC(0-inf): read-out: AUC0-inf, Geometric LSM; for AUC(0-t): read-out: AUC0-last, Geometric LSM
Protocol: The pharmacokinetic (pK) parameters and safety of said drugs administered alone and in combination with Compound 1 were characterized.
Arm 2 (pravastatin): 26 subjects were treated with the study drug. On the morning of Day 1, subjects received a single oral dose pravastatin 40 mg after at least a 10-hour overnight fast. Subjects would remain fasted for approximately 4 hours after dosing. Following a 2-day washout period (Days 1-2) subjects received vadadustat 600 mg once daily beginning on Day 3 for 4 days (Days 3-6). When administered alone, vadadustat would be administered in the morning at least 30 minutes prior to breakfast. On Day 6, subjects received their morning dose of vadadustat 600 mg along with a single oral dose of pravastatin 40 mg after at least a 10-hour overnight fast. Subjects would remain fasted for at least 4 hours after dosing. Subjects were discharged from the clinical research unit on the morning of Day 7.

[8] = Phase I interaction study Part 3 Arm 1: atorvastatin; assay type: in vivo, human
Excerpt: Subjects were discharged from the clinical research unit on the morning of Day 9.

[9] = treatment Compound 1 450 mg alone
[10] = Rosuvastatin 20 mg, Compound 1 600 mg
[11] = Treatment R + V: rosuvastatin 20 mg + vadadustat 600 mg QD
[12] = Treatment R: rosuvastatin 20 mg alone
[13] = rosuvastatin 20 mg, vadadustat 600 mg QD
[14] = Treatment P + V: pravastatin 40 mg + vadadustat 600 mg QD
[15] = Treatment P: pravastatin 40 mg alone
[16] = pravastatin 40 mg, vadadustat 600 mg QD
[17] = Atorvastatin 40 mg, Compound 1 600 mg
[18] = atorvastatin 40 mg QD, vadadustat 600 mg QD

- AUC(0-inf) ([1]; both sexes, 500 mg): 82700 ng·h/mL
- AUC(0-t) ([1]; both sexes, 500 mg): 82200 ng·h/mL
- Cmax ([1]; both sexes, 500 mg): 9700 ng/mL
- increase of systemic exposure ([1]; both): up to 4.5 fold
SMILES: O=C(O)c1cc(/N=N/c2ccc(S(=O)(=O)Nc3ccccn3)cc2)ccc1O [Sulfasalazine, sulfasalazine, reference compound]

- Metabolite Ratio AUC(0-inf) ([2]; treatment Compound 1 + Iron): 0.0943
- Metabolite Ratio AUC(0-t) ([2]; treatment Compound 1 + Iron): 0.0935
- Metabolite Ratio Cmax ([2]; treatment Compound 1 + Iron): 0.0748
- Metabolite Ratio AUC(0-inf) ([2]; treatment Compound 1 alone): 0.104
- Metabolite Ratio AUC(0-t) ([2]; treatment Compound 1 alone): 0.104
- Metabolite Ratio Cmax ([2]; treatment Compound 1 alone): 0.0848
- AUC(0-inf) [2, 9]: 44500 ng·h/mL
- AUC(0-t) [2, 9]: 42800 ng·h/mL
- Cmax [2, 9]: 6070 ng/mL
- Tmax [2, 9]: 4.0 h
- AUC(0-inf) ([2]; treatment Compound 1 + Iron): 19700 ng·h/mL
- AUC(0-t) ([2]; treatment Compound 1 + Iron): 18600 ng·h/mL
- Cmax ([2]; treatment Compound 1 + Iron): 2830 ng/mL
- Tmax ([2]; treatment Compound 1 + Iron): 5.0 h
- share of the total radioactivity (AUC0-∞) in plasma [3]: about 15%
- Ae0-72, cumulative amount excreted in urine up to 72 hours ([4]; Moderate Hepatic Impairment): 585 ± 125.1 mg
- Fe%0-72, cumulative fraction excreted in urine ([4]; Moderate Hepatic Impairment): 82.8% and 82.8 ± 17.69%
- AUC0-inf, plasma, total ([4]; Moderate Hepatic Impairment): 70900 ± 24300 ng·h/mL
- AUC0-last, plasma, total ([4]; Moderate Hepatic Impairment): 68900 ± 24200 ng·h/mL
- Cmax, plasma, total ([4]; Moderate Hepatic Impairment): 5850 ± 1500 ng/mL
- Elimination Half-life (t1/2) ([4]; Moderate Hepatic Impairment): 6.01 ± 2.1 h
- Ae0-72, cumulative amount excreted in urine up to 72 hours ([4]; Normal Liver Function): 473 ± 83.76 mg
- Fe%0-72, cumulative fraction excreted in urine ([4]; Normal Liver Function): 66.9% and 66.9 ± 11.84%
- AUC0-inf, plasma, total ([4]; Normal Liver Function): 63800 ± 21300 ng·h/mL
- AUC0-last, plasma, total ([4]; Normal Liver Function): 62500 ± 21300 ng·h/mL
- Cmax, plasma, total ([4]; Normal Liver Function): 6650 ± 2400 ng/mL
- Elimination Half-life (t1/2) ([4]; Normal Liver Function): 4.74 ± 1.3 h
SMILES: O=C(O)CNC(=O)c1ncc(-c2cccc(Cl)c2)cc1O[C@@H]1O[C@H](C(=O)O)[C@@H](O)[C@H](O)[C@H]1O [Compound 1-O-glucuronide]

- AUC0-∞, Ratio of geometric mean value Combined/alone [8, 17]: 167.57%
- Cmax, Ratio of geometric mean value Combined/alone [8, 17]: 230.48%
- AUCtau, Geometric LSM Ratio (A + V/A) [8, 18]: 175.60%
- Cmax, Geometric LSM Ratio (A + V/A) [8, 18]: 230.48%
- AUC ([8]; both sexes, human, plasma, oral, 40 mg, heading: AUCtau, Geometric LSM): 8.92 ng·h/mL
- Cmax ([8]; both sexes, human, plasma, oral, 40 mg, read-out: Cmax, Geometric LSM): 0.62 ng/mL
SMILES: CC(C)c1c(C(=O)Nc2ccc(O)cc2)c(-c2ccccc2)c(-c2ccc(F)cc2)n1CC[C@@H](O)C[C@@H](O)CC(=O)O [p-hydroxy atorvastatin, (3R,5R)-7-[2-(4-fluorophenyl)-4-[(4-hydroxyphenyl)carbamoyl]-3-phenyl-5-propan-2-ylpyrrol-1-yl]-3,5-dihydroxyheptanoic acid]

The remaining lines, values behind:

SMILES: CCC(C)(C)C(=O)O[C@H]1C[C@@H](C)C=C2C=C[C@H](C)[C@H](CC[C@@H](O)C[C@@H](O)CC(=O)O)[C@H]21 [β-hydroxysimvastatin acid, (3R,5R)-7-[(1S,2S,6R,8S,8aR)-8-(2,2-dimethylbutanoyloxy)-2,6-dimethyl-1,2,6,7,8,8a-hexahydronaphthalen-1-yl]-3,5-dihydroxyheptanoic acid]
- AUC(0-inf) [5]: 20200 ng·h/mL
- AUC(0-t) [5]: 17300 ng·h/mL
- Cmax [5]: 1850 ng/mL

SMILES: CC(C)c1nc(N(C)S(C)(=O)=O)nc(-c2ccc(F)cc2)c1/C=C/[C@@H](O)C[C@@H](O)CC(=O)O [Rosuvastatin, rosuvastatin]
- AUC0-∞, Ratio of geometric mean value Combined/alone [6, 10]: 246.86%
- Cmax, Ratio of geometric mean value Combined/alone [6, 10]: 274.80%
- AUC(0-inf) [6, 11]: 254 ng·h/mL
- AUC(0-t) [6, 11]: 249 ng·h/mL
- Cmax [6, 11]: 27.9 ng/mL
- AUC(0-inf) [6, 12]: 103 ng·h/mL
- AUC(0-t) [6, 12]: 98.4 ng·h/mL
- Cmax [6, 12]: 10.2 ng/mL
- AUC0-inf, Geometric LSM Ratio (R + V/R) [6, 13]: 246.86%
- AUC0-last, Geometric LSM Ratio (R + V/R) [6, 13]: 252.86%
- Cmax, Geometric LSM Ratio (R + V/R) [6, 13]: 274.80%

SMILES: CC[C@H](C)C(=O)O[C@H]1C[C@H](O)C=C2C=C[C@H](C)[C@H](CC[C@@H](O)C[C@@H](O)CC(=O)O)[C@H]21 [Pravastatin, pravastatin]
- change of systemic exposure ([7]; administered with Compound 1 compared to alone): unchanged
- Cmax [7, 14]: 44 ng/mL
- AUC(0-inf) [7, 14]: 137000 ng·h/mL
- AUC(0-t) [7, 14]: 134000 ng·h/mL
- Cmax [7, 15]: 53.2 ng/mL
- AUC(0-inf) [7, 15]: 134000 ng·h/mL
- AUC(0-t) [7, 15]: 130000 ng·h/mL
- AUC0-inf, Geometric LSM Ratio (P + V/P) [7, 16]: 102.03%
- AUC0-last, Geometric LSM Ratio (P + V/P) [7, 16]: 102.98%
- Cmax, Geometric LSM Ratio (P + V/P) [7, 16]: 82.74%
